The target of assay [1] is T1, 2-heptyl-4(1H)-quinolone synthase PqsD (Pseudomonas aeruginosa) (UniProt A0A0C7ACN7).
T1 sequence (whole entry): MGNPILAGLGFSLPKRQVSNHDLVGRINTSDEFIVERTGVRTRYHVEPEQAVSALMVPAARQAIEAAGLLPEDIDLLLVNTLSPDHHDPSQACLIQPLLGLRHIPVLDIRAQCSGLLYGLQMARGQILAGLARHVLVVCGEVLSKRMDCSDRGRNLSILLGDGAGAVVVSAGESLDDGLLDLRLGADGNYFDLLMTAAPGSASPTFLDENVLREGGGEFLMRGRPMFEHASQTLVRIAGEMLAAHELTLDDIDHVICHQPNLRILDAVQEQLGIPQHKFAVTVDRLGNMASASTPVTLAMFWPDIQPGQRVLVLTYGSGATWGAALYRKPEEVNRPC
Description: Inhibition of Pseudomonas aeruginosa recombinant PqsD expressed in Escherichia coli BL21 (lambdaDE3) using ACoA/beta-ketodecanoic acid as substrate at 50 uM after 10 mins.

The target in assay [2] is T1, 2-heptyl-4(1H)-quinolone synthase PqsD (Pseudomonas aeruginosa). Description: Binding affinity to Pseudomonas aeruginosa recombinant his6-tagged PqsD expressed in Escherichia coli BL21 (lambdaDE3) using AcoA as substrate at 250 to 500 uM incubated for 40 mins prior to compound addition followed by wash out for 30 mins by SPR analysis. A general note: Surface plasmon resonance follows binding to a sensor surface in real time, without labels.

In assay [3] the test system is Pseudomonas aeruginosa PA14. Description: Inhibition of Pseudomonas aeruginosa PA14 PqsH transposon mutant assessed as extracellular level of HHQ at 250 uM after 16 hrs.
For assay [4], the target named is T1, 2-heptyl-4(1H)-quinolone synthase PqsD (Pseudomonas aeruginosa). Description: Binding affinity to Pseudomonas aeruginosa recombinant his6-tagged PqsD expressed in Escherichia coli BL21 (lambdaDE3) at 250 to 500 uM by SPR analysis.
Assay [5] concerns the target T2, 2-heptyl-4(1H)-quinolone synthase PqsD (Pseudomonas aeruginosa, UniProt A0A0C7ACN7).
T2 sequence (A0A0C7ACN7 whole entry): T1 sequence (whole entry)
Description: Inhibition of Pseudomonas aeruginosa recombinant PqsD expressed in Escherichia coli BL21 (lambdaDE3) using ACoA/beta-ketodecanoic acid as substrate after 10 mins.

Assay [6] relates to Pseudomonas aeruginosa PA14. Description: Inhibition of Pseudomonas aeruginosa PA14 PqsH transposon mutant assessed as extracellular level of HHQ after 16 hrs.
Assay [7] relates to Pseudomonas aeruginosa PA14. Put plainly: Inhibition of Pseudomonas aeruginosa PA14 PqsH transposon mutant assessed as extracellular level of HHQ at 500 uM after 16 hrs.

SMILES strings stand for the structures. Active and inactive are the calls of the source. The calls are words filed in the database; no cut-off is given here.

Regarding `COC(=O)CCc1ccc([N+](=O)[O-])cc1`, the inhibition (as a rule, the drop in the measured response relative to a control, in per cent) in assay [1] is less than 10%.
On the same count and under the same terms, the same measure for `COC(=O)CCc1ccc(N)cc1`: less than 10%.
Turning to `COC(=O)/C=C/c1ccccc1`, the inhibition in assay [1] is less than 10%. For the same compound, in assay [2], the outcome was inactive.
For the compound `COC(=O)CCc1ccc(O)cc1`, in assay [1], the inhibition is less than 10%.
Take `COc1cc(/C=C/C(=O)O)ccc1O`: in assay [1], the inhibition was less than 10%.
On to `O=C(CCc1ccc(O)c(O)c1)OCc1ccccc1`, for which the inhibition in assay [3] was less than 10%. For the same compound, the result in assay [4] was Active. The concentration for half-maximal inhibition (IC50) (usually the concentration that gives 50% inhibition) in assay [5] was 5.9 µM.
In the case of `CNC(=O)CCc1ccc(O)c(O)c1`, in assay [3], the inhibition was less than 10%. Also, the IC50 in assay [5] came out at 20 µM.
With `CC(C)OC(=O)CCc1ccc(O)c(O)c1`, the Activity in assay [6] is 16 µM. Further, in assay [4], the result was Active. Besides, the IC50 in assay [5] worked out at 8.6 µM.
Regarding `O=C(O)/C=C/c1ccc(O)c(O)c1`, the figures for the inhibition in assay [1] and in assay [7] were 26% and 10%, respectively.
On to `COC(=O)/C=C/c1ccc(O)c(O)c1` [METHYLCAFFEATE], for which, in assay [2], the result was inactive. Further, the Activity in assay [6] stood at 31 µM. The IC50 in assay [5] was found to be 51 µM.
Turning to `O=C(O)CCc1ccc(O)c(O)c1` [DIHYDROCAFFEIC ACID], the inhibition in assay [3] is less than 10%. Further, the IC50 in assay [5] stood at 27 µM.
In the case of `O=C(O)/C=C/c1ccc(F)c(F)c1`, in assay [1], the inhibition turned out to be 18%.
Same read-out and setting: the value for `COC(=O)CCc1ccc(C)cc1` was less than 10%.
Take `COC(=O)CCCc1ccc(O)c(O)c1`: the Activity in assay [6] is 18 µM. Moreover, in assay [4], the outcome was Active. In addition, the IC50 in assay [5] came to 7.9 µM.
In the case of `COC(=O)CCc1ccc(O)c(O)c1`, the Activity in assay [6] worked out at 17 µM. In addition, the IC50 in assay [5] amounted to 23 µM.
Take `O=C(O)/C=C/c1ccoc1`: the inhibition in assay [1] turned out to be 12%.
As to `COC(=O)/C=C/c1ccc(O)cc1`, the inhibition in assay [1] is 22%; in assay [3] it was less than 10%. The result in assay [2] was inactive.
With `COC(=O)CCc1ccc2c(c1)OCO2`, the inhibition is 37% in assay [1] and less than 10% in assay [3].
On to `O=C(O)/C=C/c1ccc(O)cc1`, for which the inhibition in assay [1] was 30%; in assay [3] it was less than 10%.
Consider `O=C(O)/C=C/c1ccsc1`, for which the values for the inhibition in assay [1] and in assay [3] were 12% and less than 10%, respectively.
`O=C(O)/C=C/c1cccc(O)c1`: in assay [1], the inhibition was less than 10%.
Consider `O=C(O)/C=C/c1ccccc1`, for which the values for the inhibition in assay [1] and in assay [3] were 33% and less than 10%, respectively.
For the compound `COC(=O)Cc1ccc(O)c(O)c1`, the Activity in assay [6] came to 24 µM. Moreover, the 50% inhibitory concentration (IC50) in assay [5] worked out at 23 µM.
For `CCOC(=O)CCc1ccc(O)c(O)c1`, in that order: 17 µM and 14 µM.
With `COC(=O)/C=C/c1ccc(F)c(F)c1`, the inhibition in assay [1] and in assay [3] was less than 10% throughout.

The values are drawn from ChEMBL document CHEMBL3396996, “Catechol-based substrates of chalcone synthase as a scaffold for novel inhibitors of PqsD” (Eur J Med Chem, 2015).
